# Like-named read-outs stand apart in the source and are kept apart here.
# Legend:
# A. baumannii NCTC 13423 = experiment: Antibacterial activity, pre-exposure; format: cell-based, Acinetobacter baumannii; settings: for Average inhibition %, biofilms viability / Average inhibition %, planktonic cells viability / inhibition at 10 µM / inhibition at 15 µM / inhibition at 25 µM / inhibition at 50 µM: A. baumannii NCTC 13423, pre-exposure, ± SD; for inhibition at 10 µM / inhibition at 15 µM / inhibition at 25 µM / inhibition at 50 µM / MIC: Acinetobacter baumannii, NCTC13423
# Procedure, shortened: (§1)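 Bacteria and compound were co-incubated from the start for 18 h at 37 °C, 220 rpm. Planktonic cells scored by turbidity plus resazurin reduction; washed biofilms scored by 20 μM resazurin (30, 60, 90 min for S. aureus, A. baumannii, P. aeruginosa) and ethanol-fixed crystal violet staining.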
# S. aureus ATCC 25923 [1] = experiment: Antibacterial activity, pre-exposure (planktonic cells and biofilm formation); format: cell-based, Staphylococcus aureus; settings: for MIC / inhibition at 5 µM / inhibition at 10 µM / inhibition at 15 µM / inhibition at 25 µM: Staphylococcus aureus, ATCC25923; for inhibition at 5 µM / inhibition at 10 µM / inhibition at 15 µM / inhibition at 25 µM / Average inhibition %, biofilms viability / Average inhibition %, planktonic cells viability: pre-exposure, ± SD
# Procedure, shortened: as §1
# P. aeruginosa ATCC 9027 = experiment: Antibacterial activity, pre-exposure; format: cell-based, Pseudomonas aeruginosa; settings: for Average inhibition %, biofilms viability / Average inhibition %, planktonic cells viability / inhibition at 50 µM / inhibition at 100 µM / inhibition at 150 µM / inhibition at 200 µM: P. aeruginosa ATCC 9027, pre-exposure, ± SD; for inhibition at 50 µM / inhibition at 100 µM / inhibition at 150 µM / inhibition at 200 µM: ATCC9027
# Procedure, shortened: as §1
# S. aureus ATCC 25923 [2] = experiment: Antibacterial activity, post-exposure on preformed 18-h-old biofilms; format: cell-based, Staphylococcus aureus; settings: for Average inhibition %, biofilms viability / Average inhibition %, planktonic cells viability / inhibition at 25 µM / inhibition at 50 µM / inhibition at 100 µM / inhibition at 200 µM: ± SD; for inhibition at 25 µM / inhibition at 50 µM / inhibition at 100 µM / inhibition at 200 µM: Staphylococcus aureus; for inhibition at 25 µM: ATCC25923, 25 µM; for inhibition at 50 µM: ATCC25923, 50 µM; for inhibition at 100 µM: ATCC25923, 100 µM; for inhibition at 200 µM: ATCC25923, 200 µM
# Procedure, shortened: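 Compounds were applied to preformed 18-h biofilms after medium change and left 24 h. Read-outs: planktonic OD plus resazurin fluorescence (20 μM), biofilm metabolic activity by resazurin 30 min at 37 °C, then biomass by crystal violet absorbance at 595 nm after ethanol fixation.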
# [3] = 10 µM, read-out: Average inhibition %, biofilms biomass
# [4] = 10 µM, read-out: Average inhibition %, planktonic cells turbidity
# [5] = 15 µM, read-out: Average inhibition %, biofilms biomass
# [6] = 15 µM, read-out: Average inhibition %, planktonic cells turbidity
# [7] = 25 µM, read-out: Average inhibition %, biofilms biomass
# [8] = 25 µM, read-out: Average inhibition %, planktonic cells turbidity
# [9] = read-out: Average inhibition %, biofilms biomass
# [10] = read-out: Average inhibition %, planktonic cells turbidity
structure (smiles),measurement,setting,value
"CCCCCCCCc1ccc(C(O)CC(N)(CO)CO)cc1 (stereo not drawn) [Compound 54, 3-Amino-3-(hydroxymethyl)-1-(4-octylphenyl)butane-1,4-diol]","Average inhibition %, biofilms viability",A. baumannii NCTC 13423; 10 µM,0 ± 0%
same,"Average inhibition %, planktonic cells viability",A. baumannii NCTC 13423; 10 µM,4.7 ± 2.4%
same,"Average inhibition %, biofilms viability",A. baumannii NCTC 13423; 15 µM,1.2 ± 2.1%
same,"Average inhibition %, planktonic cells viability",A. baumannii NCTC 13423; 15 µM,6.4 ± 4.2%
same,"Average inhibition %, biofilms viability",A. baumannii NCTC 13423; 25 µM,6.1 ± 6.8%
same,"Average inhibition %, planktonic cells viability",A. baumannii NCTC 13423; 25 µM,3.3 ± 4.4%
same,"Average inhibition %, biofilms viability",A. baumannii NCTC 13423; 50 µM,100.2 ± 0.8%
same,"Average inhibition %, planktonic cells viability",A. baumannii NCTC 13423; 50 µM,99.4 ± 0.2%
same,inhibition at 10 µM,A. baumannii NCTC 13423; [3],2.3 ± 4.1%
same,inhibition at 10 µM,A. baumannii NCTC 13423; [4],0%
same,inhibition at 15 µM,A. baumannii NCTC 13423; [5],1.5 ± 1.3%
same,inhibition at 15 µM,A. baumannii NCTC 13423; [6],0%
same,inhibition at 25 µM,A. baumannii NCTC 13423; [7],6.1 ± 8.1%
same,inhibition at 25 µM,A. baumannii NCTC 13423; [8],0%
same,inhibition at 50 µM,"A. baumannii NCTC 13423; 50 µM, read-out: Average inhibition %, biofilms biomass",81.2 ± 8.8%
same,inhibition at 50 µM,"A. baumannii NCTC 13423; 50 µM, read-out: Average inhibition %, planktonic cells turbidity",99 ± 1%
same,MIC,"A. baumannii NCTC 13423; pre-exposure, Inactive = no activity up to 50 μM, > = some inhibition but no MIC reached, read-out: MIC A. baumannii NCTC 13423",50 µM
same,MIC,"A. baumannii NCTC 13423; supplementary molecular formula strings sheet, read-out: MIC (A. baumannii)",50 µM
same,MIC,"S. aureus ATCC 25923 [1]; lowest concentration with no visible growth (>90% inhibition of turbidity and viability of planktonic cells), 18 h, read-out: MIC S. aureus ATCC 25923",25 µM
same,inhibition at 5 µM,"S. aureus ATCC 25923 [1]; 5 µM, read-out: Average inhibition %, biofilms biomass",21.2 ± 18.4%
same,inhibition at 5 µM,"S. aureus ATCC 25923 [1]; 5 µM, read-out: Average inhibition %, planktonic cells turbidity",34.1 ± 32.1%
same,inhibition at 10 µM,S. aureus ATCC 25923 [1]; [3],23.7 ± 8.7%
same,inhibition at 10 µM,S. aureus ATCC 25923 [1]; [4],38.3 ± 27%
same,inhibition at 15 µM,S. aureus ATCC 25923 [1]; [5],39.3 ± 23.6%
same,inhibition at 15 µM,S. aureus ATCC 25923 [1]; [6],44.1 ± 23.3%
same,inhibition at 25 µM,S. aureus ATCC 25923 [1]; [7],93.7 ± 4.1%
same,inhibition at 25 µM,S. aureus ATCC 25923 [1]; [8],98.8 ± 1%
same,MIC,S. aureus ATCC 25923 [1]; read-out: MIC (S. aureus),25 µM
same,"Average inhibition %, biofilms viability",S. aureus ATCC 25923 [1]; 5 µM,21.2 ± 4.7%
same,"Average inhibition %, planktonic cells viability",S. aureus ATCC 25923 [1]; 5 µM,11.9 ± 20.6%
same,"Average inhibition %, biofilms viability",S. aureus ATCC 25923 [1]; 10 µM,28.3 ± 15.2%
same,"Average inhibition %, planktonic cells viability",S. aureus ATCC 25923 [1]; 10 µM,10.2 ± 17.7%
same,"Average inhibition %, biofilms viability",S. aureus ATCC 25923 [1]; 15 µM,28.6 ± 10.1%
same,"Average inhibition %, planktonic cells viability",S. aureus ATCC 25923 [1]; 15 µM,8.5 ± 14.7%
same,"Average inhibition %, biofilms viability",S. aureus ATCC 25923 [1]; 25 µM,99.5 ± 0.6%
same,"Average inhibition %, planktonic cells viability",S. aureus ATCC 25923 [1]; 25 µM,99.8 ± 0.1%
same,"Average inhibition %, biofilms viability",P. aeruginosa ATCC 9027; 50 µM,22.2 ± 26.9%
same,"Average inhibition %, planktonic cells viability",P. aeruginosa ATCC 9027; 50 µM,74 ± 11.2%
same,"Average inhibition %, biofilms viability",P. aeruginosa ATCC 9027; 100 µM,98.9 ± 1.5%
same,"Average inhibition %, planktonic cells viability",P. aeruginosa ATCC 9027; 100 µM,99.6 ± 0%
same,"Average inhibition %, biofilms viability",P. aeruginosa ATCC 9027; 150 µM,97.5 ± 3.9%
same,"Average inhibition %, planktonic cells viability",P. aeruginosa ATCC 9027; 150 µM,99.2 ± 0.8%
same,"Average inhibition %, biofilms viability",P. aeruginosa ATCC 9027; 200 µM,99.7 ± 0.1%
same,"Average inhibition %, planktonic cells viability",P. aeruginosa ATCC 9027; 200 µM,99.7 ± 0.1%
same,MIC,"P. aeruginosa ATCC 9027; Pseudomonas aeruginosa, ATCC9027, pre-exposure, Inactive = no activity up to 200 μM, > = some inhibition but no MIC reached, read-out: MIC P. aeruginosa ATCC 9027",50 to 100 µM
same,MIC,"P. aeruginosa ATCC 9027; Pseudomonas aeruginosa, ATCC9027, supplementary molecular formula strings sheet, read-out: MIC (P. aeruginosa)",100 µM
same,inhibition at 50 µM,"P. aeruginosa ATCC 9027; Pseudomonas aeruginosa, 50 µM, read-out: Average inhibition %, biofilms biomass",46.4 ± 22%
same,inhibition at 50 µM,"P. aeruginosa ATCC 9027; Pseudomonas aeruginosa, 50 µM, read-out: Average inhibition %, planktonic cells turbidity",76.9 ± 11.6%
same,inhibition at 100 µM,"P. aeruginosa ATCC 9027; Pseudomonas aeruginosa, 100 µM, read-out: Average inhibition %, biofilms biomass",96.7 ± 1.1%
same,inhibition at 100 µM,"P. aeruginosa ATCC 9027; Pseudomonas aeruginosa, 100 µM, read-out: Average inhibition %, planktonic cells turbidity",98.2 ± 0.5%
same,inhibition at 150 µM,"P. aeruginosa ATCC 9027; Pseudomonas aeruginosa, 150 µM, read-out: Average inhibition %, biofilms biomass",90.9 ± 7.2%
same,inhibition at 150 µM,"P. aeruginosa ATCC 9027; Pseudomonas aeruginosa, 150 µM, read-out: Average inhibition %, planktonic cells turbidity",94.4 ± 1.4%
same,inhibition at 200 µM,"P. aeruginosa ATCC 9027; Pseudomonas aeruginosa, 200 µM, read-out: Average inhibition %, biofilms biomass",94.1 ± 1.7%
same,inhibition at 200 µM,"P. aeruginosa ATCC 9027; Pseudomonas aeruginosa, 200 µM, read-out: Average inhibition %, planktonic cells turbidity",94.1 ± 1.3%
same,MIC,"P. aeruginosa ATCC 9027; pre-exposure, Inactive = no activity up to 200 μM, > = some inhibition but no MIC reached, read-out: MIC P. aeruginosa ATCC 9027",100 µM
same,"Average inhibition %, biofilms viability",S. aureus ATCC 25923 [2]; 25 µM,11.2 ± 0.8%
same,"Average inhibition %, planktonic cells viability",S. aureus ATCC 25923 [2]; 25 µM,15 ± 26.1%
same,"Average inhibition %, biofilms viability",S. aureus ATCC 25923 [2]; 50 µM,23.6 ± 12.7%
same,"Average inhibition %, planktonic cells viability",S. aureus ATCC 25923 [2]; 50 µM,0 ± 0%
same,Inhibition of viability and total biomass of preformed biofilms,S. aureus ATCC 25923 [2]; 100 μM,at least 70%
same,"Average inhibition %, biofilms viability",S. aureus ATCC 25923 [2]; 100 µM,82.1 ± 27.3%
same,"Average inhibition %, planktonic cells viability",S. aureus ATCC 25923 [2]; 100 µM,97.9 ± 3.4%
same,"Average inhibition %, biofilms viability",S. aureus ATCC 25923 [2]; 200 µM,99.8 ± 0.2%
same,"Average inhibition %, planktonic cells viability",S. aureus ATCC 25923 [2]; 200 µM,100.1 ± 0.2%
same,inhibition at 25 µM,S. aureus ATCC 25923 [2]; [9],44 ± 14.9%
same,inhibition at 25 µM,S. aureus ATCC 25923 [2]; [10],5.1 ± 6.4%
same,inhibition at 50 µM,S. aureus ATCC 25923 [2]; [9],55.3 ± 3%
same,inhibition at 50 µM,S. aureus ATCC 25923 [2]; [10],17.4 ± 3.4%
same,inhibition at 100 µM,S. aureus ATCC 25923 [2]; [9],83.5 ± 19%
same,inhibition at 100 µM,S. aureus ATCC 25923 [2]; [10],82.6 ± 4.7%
same,inhibition at 200 µM,S. aureus ATCC 25923 [2]; [9],86.4 ± 3.9%
same,inhibition at 200 µM,S. aureus ATCC 25923 [2]; [10],83.6 ± 3.7%

# Reference: article PMC8296573, “Synthesis and Biological Evaluation of Fingolimod Derivatives as Antibacterial Agents” (ACS Omega, 2021)
